Values of other authors as cited in US20100069410A1 (Emisphere Technologies Inc., priority 2006, published 2010).

Conditions: orally administered, Physicians' Desk Reference 1994

For `Nc1nc2c(ncn2COCCO)c(=O)[nH]1` [acyclovir, 9-(2-hydroxyethoxymethyl) guanine], the reported oral bioavailability is given as 15-30%.
